Test system: 994946-033-R-J1-PDC complex spheroid viability
Test: Anticancer human tumor 994946-033-R-J1-PDC patient-derived melanoma cell line growth inhibition [POLQ]
Settings: for IC50: curve of first compound; for viability, T/C: stronger effect = lower value
Procedure, shortened: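 Complex spheroid viability model combining PDC tumour cells with endothelial (HUVEC) and MSC stromal cells. Novobiocin, ART-558 or RP6685 were tested singly and in combination with standard and investigational anticancer drugs. Each was titrated in half-log steps from near clinical Cmax, or from 10 microM where Cmax was unknown.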
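Further: spheroids exposed to drugs for 7 days.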
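Wherever viability, T/C is given: 100% = DMSO vehicle treated spheroids.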

CC(C)n1c(=O)n(C)c2cnc3cc(F)c(-c4ccc(OCCCN5CCCCC5)nc4)cc3c21 + Nc1ccc(C#CCN(C(=O)Cc2ncc(C(F)(F)F)cc2C(F)(F)F)c2ccc(F)cc2)nn1
IC50 (second compound 0.0316 µM): > 10 µM | IC50 (second compound 0.1 µM): > 10 µM | IC50 (second compound 0.316 µM): > 10 µM | IC50 (second compound 1 µM): 8.97 µM | IC50 (second compound 3.16 µM): 8.25 µM | IC50 (second compound 10 µM): > 10 µM | viability, T/C (second compound 0.0316 µM, first compound 0.0316 µM): 82.2% | viability, T/C (second compound 0.0316 µM, first compound 0.1 µM): 103% | viability, T/C (second compound 0.0316 µM, first compound 0.316 µM): 80.6% | viability, T/C (second compound 0.0316 µM, first compound 1 µM): 98.5% | viability, T/C (second compound 0.0316 µM, first compound 3.16 µM): 83.5% | viability, T/C (second compound 0.0316 µM, first compound 10 µM): 66.4% | viability, T/C (second compound 0.1 µM, first compound 0.0316 µM): 113% | viability, T/C (second compound 0.1 µM, first compound 0.1 µM): 95.3% | viability, T/C (second compound 0.1 µM, first compound 0.316 µM): 52.7% | viability, T/C (second compound 0.1 µM, first compound 1 µM): 84.7% | viability, T/C (second compound 0.1 µM, first compound 3.16 µM): 77.5% | viability, T/C (second compound 0.1 µM, first compound 10 µM): 67.5% | viability, T/C (second compound 0.316 µM, first compound 0.0316 µM): 88.9% | viability, T/C (second compound 0.316 µM, first compound 0.1 µM): 80.9% | viability, T/C (second compound 0.316 µM, first compound 0.316 µM): 94.7% | viability, T/C (second compound 0.316 µM, first compound 1 µM): 101% | viability, T/C (second compound 0.316 µM, first compound 3.16 µM): 68.9% | viability, T/C (second compound 0.316 µM, first compound 10 µM): 59.6% | viability, T/C (second compound 1 µM, first compound 0.0316 µM): 76.5% | viability, T/C (second compound 1 µM, first compound 0.1 µM): 103% | viability, T/C (second compound 1 µM, first compound 0.316 µM): 98% | viability, T/C (second compound 1 µM, first compound 1 µM): 88.8% | viability, T/C (second compound 1 µM, first compound 3.16 µM): 93.6% | viability, T/C (second compound 1 µM, first compound 10 µM): 45.6% | viability, T/C (second compound 3.16 µM, first compound 0.0316 µM): 96.6% | viability, T/C (second compound 3.16 µM, first compound 0.1 µM): 97.7% | viability, T/C (second compound 3.16 µM, first compound 0.316 µM): 97.6% | viability, T/C (second compound 3.16 µM, first compound 1 µM): 115% | viability, T/C (second compound 3.16 µM, first compound 3.16 µM): 85% | viability, T/C (second compound 3.16 µM, first compound 10 µM): 43% | viability, T/C (second compound 10 µM, first compound 0.0316 µM): 103% | viability, T/C (second compound 10 µM, first compound 0.1 µM): 67.7% | viability, T/C (second compound 10 µM, first compound 0.316 µM): 74.4% | viability, T/C (second compound 10 µM, first compound 1 µM): 82% | viability, T/C (second compound 10 µM, first compound 3.16 µM): 87.9% | viability, T/C (second compound 10 µM, first compound 10 µM): 70.8%
